# US9399016B2, “Materials and complexes for the delivery of biologically-active materials to cells” (UCL BUSINESS PLC, priority 2006, dated 2016)
# Columns and labels:
# bEND.3 cells = assay: In vitro transfection with LPD/LD complexes, luciferase reporter (pCI-Luc); type: cell-based, mouse; details: complexed to peptide E, p<0.05
# Description: (§1) Cells were seeded into 96-well plates at 2.5×10^3 cells per well for bEND.3 cells and at 2×10^4 cells per well for all the other cells, then incubated overnight at 37° C. in complete growth medium. The following day, lipopolyplex (LPD) formulations were prepared essentially as described previously (Hart et al., 1998), by mixing the components in the following order: 50 μl of lipid (L) at 80 μg/ml in OptiMEM, 70 μl of peptide (P) at 110 μg/ml in OptiMEM and 50 μl of plasmid pCI-Luc (D) at 40 μg/ml in OptiMEM corresponding to a weight ratio of 2:4:1, respectively. All the complexes were mixed by pipetting briefly, kept for 1 h at room temperature and then diluted in OptiMEM to a final volume of 1.57 ml. Two hundred microliters of complexes corresponding at 0.25 μg of plasmid DNA were added to each culture well after removal of the complete growth medium. All the transfections were carried out in 6 wells each. A centrifugation (1500 rpm, during 5 minutes) could be performed to promote the complex sedimentation and cell contact. The cells were incubated with the complexes for 4 h at 37° C. before replacing with fresh media for 24 h, after which reporter gene expression was analysed by luciferase assay (Promega, Madison, Wis., USA). […]
# (§2) Cells were washed once with PBS before the addition of 20 μl of 1× Reporter Lysis Buffer (Promega, Madison, Wis., USA) to the cells for 20 min at 4° C. before freezing at −80° C. for at least 30 min, followed by thawing at room temperature. Then the luciferase activity was measured during 10 seconds using the Luciferase Assay System (Promega, Madison, Wis., USA) and a Lucy-1 Luminometer (Anthos Ltd., Salzburg, Austria). The amount of protein present in each transfection lysate was determined with the Bio-Rad (Hercules, Calif., USA) protein assay reagent by the manufacturer's instructions, adding 20 μl from the luciferase test to 180 μl of the reagent diluted 1 in 5 and incubating at room temperature for 10 min before comparing the OD590 to a range of BSA standards. […]
# [1] = Hydrolysis studies of PEG-acetal cleavable lipids; type: physicochemical; details: pH at which hydrolysis was observed; 37° C., pH range 3 to 7; TLC, confirmed by mass spectrometry
# Description: Hydrolysis of the PEG-acetal lipids was investigated at 37° C. over a pH range of 3 to 7.
# Acid hydrolysis of the compounds was monitored by TLC, and cleavage was then confirmed by mass spectrometry. An example of the TLC analysis method used for compound JBW389 is shown FIG. 4 with a control (the cleaved acetal product, the corresponding aldehyde) and the pH at which hydrolysis for all of the compounds prepared was observed is given in Table II.
# [2] = system: Neuro 2A, AJ3.1, bEND.3, 16HBE14o-, ΣCFTE29o- cells and primary PVSMCs; assay: In vitro transfection, luciferase reporter, statements covering several or all cell types studied; type: cell-based; details: for transfection efficiency, rank among PEG-acetal pH-sensitive lipids: all the cells, lipid/DOPE complexed to peptide 6 or E and pCI-Luc 2:4:1; for transfection efficiency of cleavable (RVRR) peptide compared with equivalent non-cleavable peptide control: Neuro 2A, bEND.3 and 16HBE14o- cells, stated for 'most' of the peptides, controls P1, P6, FMM12, PE, PY
# Description: Cells were seeded into 96-well plates at 2.5×10^3 cells per well for bEND.3 cells and at 2×10^4 cells per well for all the other cells, then incubated overnight at 37° C. in complete growth medium. The following day, lipopolyplex (LPD) formulations were prepared essentially as described previously (Hart et al., 1998), by mixing the components in the following order: 50 μl of lipid (L) at 80 μg/ml in OptiMEM, 70 μl of peptide (P) at 110 μg/ml in OptiMEM and 50 μl of plasmid pCI-Luc (D) at 40 μg/ml in OptiMEM corresponding to a weight ratio of 2:4:1, respectively. All the complexes were mixed by pipetting briefly, kept for 1 h at room temperature and then diluted in OptiMEM to a final volume of 1.57 ml. Two hundred microliters of complexes corresponding at 0.25 μg of plasmid DNA were added to each culture well after removal of the complete growth medium. All the transfections were carried out in 6 wells each. A centrifugation (1500 rpm, during 5 minutes) could be performed to promote the complex sedimentation and cell contact. The cells were incubated with the complexes for 4 h at 37° C. before replacing with fresh media for 24 h, after which reporter gene expression was analysed by luciferase assay (Promega, Madison, Wis., USA). For bEND.3 cells, 5 mM sodium butyrate was added to the transfection medium and to the fresh media to achieve optimal expression levels.
# Cells were washed once with PBS before the addition of 20 μl of 1× Reporter Lysis Buffer (Promega, Madison, Wis., USA) to the cells for 20 min at 4° C. before freezing at −80° C. for at least 30 min, followed by thawing at room temperature. Then the luciferase activity was measured during 10 seconds using the Luciferase Assay System (Promega, Madison, Wis., USA) and a Lucy-1 Luminometer (Anthos Ltd., Salzburg, Austria). The amount of protein present in each transfection lysate was determined with the Bio-Rad (Hercules, Calif., USA) protein assay reagent by the manufacturer's instructions, adding 20 μl from the luciferase test to 180 μl of the reagent diluted 1 in 5 and incubating at room temperature for 10 min before comparing the OD590 to a range of BSA standards. In vitro luciferase activity was expressed as Relative Light Units (RLU) per milligram of protein (RLU/mg).
# [3] = system: primary porcine vascular smooth muscle cells (PVSMCs); assay: In vitro transfection with LPD/LD complexes, luciferase reporter (pCI-Luc); type: cell-based; details: complexed to peptide E, p<0.05
# Description: (§3) Cells were seeded into 96-well plates at 2.5×10^3 cells per well for bEND.3 cells and at 2×10^4 cells per well for all the other cells, then incubated overnight at 37° C. in complete growth medium. The following day, lipopolyplex (LPD) formulations were prepared essentially as described previously (Hart et al., 1998), by mixing the components in the following order: 50 μl of lipid (L) at 80 μg/ml in OptiMEM, 70 μl of peptide (P) at 110 μg/ml in OptiMEM and 50 μl of plasmid pCI-Luc (D) at 40 μg/ml in OptiMEM corresponding to a weight ratio of 2:4:1, respectively. […] The cells were incubated with the complexes for 4 h at 37° C. before replacing with fresh media for 24 h, after which reporter gene expression was analysed by luciferase assay (Promega, Madison, Wis., USA). […]
# (§4) Cells were washed once with PBS before the addition of 20 μl of 1× Reporter Lysis Buffer (Promega, Madison, Wis., USA) to the cells for 20 min at 4° C. before freezing at −80° C. for at least 30 min, followed by thawing at room temperature. Then the luciferase activity was measured during 10 seconds using the Luciferase Assay System (Promega, Madison, Wis., USA) and a Lucy-1 Luminometer (Anthos Ltd., Salzburg, Austria). […] In vitro luciferase activity was expressed as Relative Light Units (RLU) per milligram of protein (RLU/mg).
# ΣCFTE29o- cells = assay: as above; type: cell-based, human; details: complexed to peptide E, p<0.05
# Description: as §3, §4
# 16HBE14o- cells = assay: as above; type: cell-based, human; details: complexed to peptide E, p<0.05
# Description: as §3, §4
# Neuro 2A cells = assay: as above; type: cell-based, mouse
# Description: as §1, §2
# [4] = system: female A/J mice bearing a tumour (Neuro 2A); assay: In vivo transfection, i.v., luciferase expression in tumours and organs; set-up: species or system mouse; details: peptide complexed to lipid ME42/DOPE and pCI-Luc, 24 hours, p>0.05
# Description: All animal procedures were approved and licensed by the Home Office and performed to the standards required by the UK Co-ordinating Committee on Cancer Research (UKCCCR) (Workman et al., British Journal of Cancer, 1998, 77, 1-10). Female A/J mice (Harlan Laboratories, U.K) of 8-12 weeks old were injected subcutaneously in the right posterior flank with 1.5×10^6 Neuro 2A cells. After 10±2 days, when tumors had reached approximately 8-12 mm in size, 100 μl of LPD complexes made in 5% glucose and containing 50 ug pCI-Luc or pAB 11 were injected into the tail vein. Experiments were carried out at least six times. Twenty-four hours after injection, mice were killed and tumours and organs were resected and stored at −80° C. Tissues were defrosted in ice, submersed in reporter gene assay lysis buffer (Roche, Germany), homogenized with an IKA homogenizer (IKA, Staufen, Germany) and centrifuged at 4600 rpm during 10 min at 4° C. The supernatant was got back and centrifuged at 13000 rpm during 10 min at 4° C. Luciferase activity in the tissue lysates was measured using a FLUOstar Optima (BMG Labtech, UK) during 30 seconds and was expressed as RLU per milligram of protein (RLU/mg). Two million RLU/30 sec correspond to 1 ng luciferase.
# [5] = lipofectin:peptide:pCI-Luc 2:4:1
Compound,Hydrolysis pH [1],"transfection efficiency, rank among PEG-acetal pH-sensitive lipids [2]","transfection efficiency of cleavable (RVRR) peptide compared with equivalent non-cleavable peptide control [2, 5]",further results
"CCCCCCCC/C=C\CCCCCCCCOCC(C[N+](C)(C)CCCCCCCC(OCCOCCO)OCCOCCO)OCCCCCCCC/C=C\CCCCCCCC (centres unmarked) [JBW400, N-(2,3-bis((Z)-octadec-9-enyloxy)propyl)-8,8-bis(2-(2-hydroxyethoxy)ethoxy)-N,N-dimethyloctan-1-aminium chloride]",4.0,the best lipids for transfection,,transfection efficiency relative to non-cleavable lipid JBW456 (bEND.3 cells): 2 times; transfection efficiency relative to non-cleavable lipid JBW456 [3]: 4 times
CCCCCCCC/C=C\CCCCCCCCOCC(C[N+](C)(C)CCCCCC(OCCOCCOCCOCCO)OCCOCCOCCOCCO)OCCCCCCCC/C=C\CCCCCCCC (centres unmarked) [JBW412],3.0,less efficient,,
"CCCCCCCC/C=C\CCCCCCCCOCC(C[N+](C)(C)CCCCCC(OCCOCCO)OCCOCCO)OCCCCCCCC/C=C\CCCCCCCC (centres unmarked) [JBW411, N-(2,3-bis((Z)-octadec-9-enyloxy)propyl)-6,6-bis(2-(2-hydroxyethoxy)ethoxy)-N,N-dimethylhexan-1-aminium chloride]",3.5,less efficient,,
(K)16RVRRGACSERSMNFCG [ME69],,,as or more efficient,
(K)16RVRRGACYGLPHKFCG [PCY],,,as or more efficient,
(K)16RVRRGACRRETAWACG [FMM8],,,as or more efficient,
(K)16RVRRGACRGDMFGCA [ME68],,,as or more efficient,
"CCCCCCCC/C=C\CCCCCCCCOCC(C[N+](C)(C)CCCC(OCCOCCO)OCCOCCO)OCCCCCCCC/C=C\CCCCCCCC (centres unmarked) [JBW389, N-(2,3-Bis((Z)-octadec-9-enyloxy)propyl)-4,4-bis(2-(2-hydroxyethoxy)ethoxy)-N,N-dimethylbutan-1-aminium chloride]",5.5,the best lipids for transfection,,transfection efficiency relative to non-cleavable lipid JBW456 (ΣCFTE29o- cells): 2 times; transfection efficiency relative to non-cleavable lipid JBW456 (16HBE14o- cells): 6 times
(K)16RVRRGACRGDCLG [ME27],,,as or more efficient,"transfection efficiency compared with non-cleavable peptide ME61 (Neuro 2A cells; [5]): as efficient as the non-cleavable control peptide ME61; transfection efficiency, rank among cleavable peptides ME27, ME28, ME29 ([2]; lipofectin:peptide:pCI-Luc 2:4:1, each of Neuro 2A, AJ3.1, bEND.3, 16HBE14o-, ΣCFTE29o-, PVSMCs, p<0.05): significantly the best cleavable peptide; transfection efficiency compared with non-cleavable peptide ME61 ([2]; lipofectin:peptide:pCI-Luc 2:4:1, other cell lines than Neuro 2A, p<0.05): significantly more efficient than ME61; luciferase expression in tumour, by peptide [4]: 105000 RLU/mg"
"CCCC/C=C\CCCCCCCCCCOCC(C[N+](C)(C)CCCCCC(OCCOCCO)OCCOCCO)OCCCCCCCCCC/C=C\CCCC (centres unmarked) [JBW418, N-(2,3-Bis((Z)-hexadec-11-enyloxy)propyl)-6,6-bis(2-(2-hydroxyethoxy)ethoxy)-N,N-dimethylhexan-1-aminium chloride]",3.0,less efficient,,
"CCCCCCCC/C=C\CCCCCCCCOCC(C[N+](C)(C)CCCCCC(OCCOCCOC)OCCOCCOC)OCCCCCCCC/C=C\CCCCCCCC (centres unmarked) [JBW413, N-(2,3-Bis((Z)-octadec-9-enyloxy)propyl)-6,6-bis(2-(2-methoxyethoxy)ethoxy)-N,N-dimethylhexan-1-aminium chloride]",5.0,the best lipids for transfection,,"transfection efficiency compared with non-cleavable lipid JBW456 (Neuro 2A cells; complexed to peptide E, p>0.05): as efficient as JBW456"
